Results as given in patent publication US11690860B2, “Treatment of HCV infected patients with cirrhosis” (Atea Pharmaceuticals, Inc., priority 2018, dated 2023).
Several values for one entry are separate records, joined by “and”; a condition that tells them apart may be missing. Equal entries are not always repeated. Entries after “also recorded” stand apart in the source; their conditions may differ. Structures can show the parent of a compound that is named as a salt.

Legend:
Format in all cases: in vivo, human
[1] = Safety/tolerability in the study of Compound 2
Experimental: (§1) Doses were administered as the Compound 2 salt base. The free base Compound 1 equivalent is often given in parenthesis.
(§2) Part C was a randomized, double-blind, placebo-controlled MAD study divided into three cohorts. […] The dose escalation only proceeded following satisfactory review of the data.
However, this observation is consistent with previously published data showing rapid increase in lipids with HCV clearance upon initiation of DAA therapy in HCV-infected subjects.

[2] = Plasma pharmacokinetics of Compound 1 and metabolite 1-7 (LC-MS/MS) in Parts C, D and E; details: based on plasma exposures
Experimental: as §1, §2
(§3) HCV-infected patients were treatment-naïve with HCV RNA ≥5 log 10 IU/mL. HCV RNA was quantified using COBAS® AmpliPrep TaqMAN® v2.0 with LLQ of 15 IU/mL. Plasma drug levels were measured using LC-MS/MS. […] Cirrhosis was confirmed by prior liver biopsy or Fibroscan >12.5 kPa. […] Mean ages of enrolled subjects were 44, 39, and 56 years in the non-cirrhotic GT1b 600 mg dose cohort, non-cirrhotic GT3 cohort, and the cirrhotic cohort, respectively.
Plasma levels of metabolite 1-7 were measured using LC-MS/MS.

GT1b HCV [3] = assay: Part B: single ascending dose study, HCV RNA reduction in non-cirrhotic GT1b HCV-infected subjects
Experimental: as §3
Part A and Part B were previously conducted and described in WO 2018/144640. Part A and Part B were single ascending dose (SAD) studies.

GT3 HCV = assay: Part D: 600 mg QD for 7 days, HCV RNA change in non-cirrhotic GT3 HCV-infected patients; details: for Individual HCV RNA maximum change from baseline / Mean ± SD HCV RNA maximum change from baseline / Mean ± SD HCV RNA change from baseline to 24 h: Part D; for Individual HCV RNA maximum change from baseline / Mean ± SD HCV RNA maximum change from baseline: NC GT3, 600 mg/day QD 7 days; for Mean ± SD HCV RNA maximum change from baseline / Mean ± SD HCV RNA change from baseline to 24 h: N=6; for Mean ± SD HCV RNA change from baseline to 24 h: NC GT3, 600 mg/day
Experimental: (§4) Doses were administered as the Compound 2 salt base. The free base Compound 1 equivalent is often given in parenthesis. […]
as §3

GT1b HCV [4] = assay: Part C: multiple ascending dose study, 7 days QD, HCV RNA change in non-cirrhotic GT1 HCV-infected patients; details: for Mean ± SD HCV RNA maximum change from baseline / Individual HCV RNA maximum change from baseline / Mean ± SD HCV RNA change from baseline to 24 h: NC GT1b; for Mean ± SD HCV RNA maximum change from baseline / Mean ± SD HCV RNA change from baseline to 24 h: N=6
Experimental: as §1, §2, §3

HCV GT1, GT2, GT3 = assay: All 600 mg QD cohorts (Parts C/D/E) taken together, plasma HCV RNA
Experimental: as §1, §2, §3

GT1, GT2, or GT3 HCV = assay: Part E: 600 mg QD for 7 days, HCV RNA change in Child-Pugh A cirrhotic patients; details: for Mean Reduction After 24 hours: 600 mg; for Mean ± SD HCV RNA maximum change from baseline / Mean ± SD HCV RNA change from baseline to 24 h / Individual HCV RNA maximum change from baseline: Part E; for Mean ± SD HCV RNA maximum change from baseline: Child-Pugh A cirrhotic GT1/GT2/GT3, 600 mg/day QD 7 days; for Mean ± SD HCV RNA maximum change from baseline / Mean ± SD HCV RNA change from baseline to 24 h: N=6; for Mean ± SD HCV RNA change from baseline to 24 h: Child-Pugh A cirrhotic GT1/GT2/GT3, 600 mg/day
Experimental: as §4, §3

[5] = Part C, 600 mg/day QD 7 days, listed as Compd 2
[6] = GT1, Child-Pugh A, 600 mg QD 7 days, n=3
[7] = GT3, Child-Pugh A, 600 mg QD 7 days, n=1

CNc1nc(N)nc2c1ncn2[C@@H]1O[C@H](CO[P@@](=O)(N[C@@H](C)C(=O)OC(C)C)Oc2ccccc2)[C@@H](O)[C@@]1(C)F [Compound 2, hemi-sulfate salt of isopropyl((S)-(((2R,3R,4R,5R)-5-(2-amino-6-(methylamino)-9H-purin-9-yl)-4-fluoro-3-hydroxy-4-methyltetrahydrofuran-2-yl)methoxy)(phenoxy)phosphoryl)-L-alaninate]
serious adverse events, dose-limiting toxicities, premature discontinuations ([1]; cirrhotic and non-cirrhotic HCV-infected subjects, up to 600 mg): No serious adverse events (AEs), dose-limiting toxicities, or premature discontinuations were reported; also recorded: No serious adverse events, dose-limiting toxicities or premature discontinuations were observed | lipid abnormalities (cholesterol and triglyceride increase) ([1]; compared to placebo): higher incidence of mostly low-grade lipid abnormalities | ALT/AST values ([1]; during the treatment period): decreased over time | AEs, laboratory parameters, ECGs and vital signs ([1]; in vivo): no other clinically relevant, dose-related patterns | liver injury ([1]; in vivo): no findings suggestive of liver injury | tolerability ([1]; up to 600 mg (salt form) for seven days): well tolerated | impact of mild hepatic impairment on PK [2]: did not significantly impact | Individual Max Reduction of HCV RNA (GT1b HCV [3]; 600 mg Compound 2 (equivalent of 550 mg Compound 1)): 2.1 log10 IU/ml and 2.3 log10 IU/ml and 2.6 log10 IU/ml | Mean Max Reduction of HCV RNA (GT1b HCV [3]; 600 mg Compound 2 (equivalent of 550 mg Compound 1), n=3): 2.3 log10 IU/ml | Individual Max Reduction of HCV RNA (GT1b HCV [3]; Compound 2 equivalent of 92 mg Compound 1): 0.6 log10 IU/ml and 0.8 log10 IU/ml and 0.9 log10 IU/ml | Mean Max Reduction of HCV RNA (GT1b HCV [3]; Compound 2 equivalent of 92 mg Compound 1, n=3): 0.8 log10 IU/ml | Individual Max Reduction of HCV RNA (GT1b HCV [3]; Compound 2 equivalent of 275 mg Compound 1): 1.1 log10 IU/ml and 1.8 log10 IU/ml and 2.2 log10 IU/ml | Mean Max Reduction of HCV RNA (GT1b HCV [3]; Compound 2 equivalent of 275 mg Compound 1, n=3): 1.7 log10 IU/ml | Individual Max Reduction of HCV RNA (GT1b HCV [3]; Compound 2 equivalent of 368 mg Compound 1): 1.8 log10 IU/ml and 2.2 log10 IU/ml and 2.6 log10 IU/ml | Mean Max Reduction of HCV RNA (GT1b HCV [3]; Compound 2 equivalent of 368 mg Compound 1, n=3): 2.2 log10 IU/ml | HCV RNA < LOQ (15 IU/mL), subjects (GT3 HCV; GT3 non-cirrhotic, 600 mg QD 7 days, n=6): one subject achieved HCV RNA <LOQ within four days and 1/6 | Individual HCV RNA maximum change from baseline (GT3 HCV): 4.2 log10 IU/mL and 4.4 log10 IU/mL and 4.5 log10 IU/mL (2×) and 5.0 log10 IU/mL | Mean ± SD HCV RNA maximum change from baseline (GT3 HCV): 4.5 log10 IU/mL | Mean ± SD HCV RNA maximum change from baseline (GT3 HCV; listed as Compd 2): 4.5 ± 0.3 log10 IU/mL | Individual HCV RNA maximum change from baseline (GT3 HCV; listed as Compd 2): 4.2 log10 IU/mL and 4.4 log10 IU/mL (2×) and 4.5 log10 IU/mL (2×) and 5.0 log10 IU/mL | Mean ± SD HCV RNA change from baseline to 24 h (GT3 HCV): 2.4 log10 IU/mL | Mean ± SD HCV RNA change from baseline to 24 h (GT3 HCV; listed as Compd 2): 2.3 ± 0.3 log10 IU/mL | HCV RNA < LOQ (15 IU/mL), subjects (GT1b HCV [4]; GT1 non-cirrhotic, 600 mg QD 7 days, n=6): 3/6 | subjects achieving HCV RNA <LOQ (GT1b HCV [4]; Part C, 600 mg QD 7 days): 50% | Mean ± SD HCV RNA maximum change from baseline (GT1b HCV [4]; Part C, 150 mg/day QD 7 days): 2.6 ± 1.1 log10 IU/mL | Individual HCV RNA maximum change from baseline (GT1b HCV [4]; Part C, 150 mg/day QD 7 days, listed as Compd 2): 1.7 log10 IU/mL and 1.8 log10 IU/mL (2×) and 2.7 log10 IU/mL and 3.0 log10 IU/mL and 4.5 log10 IU/mL | Mean ± SD HCV RNA change from baseline to 24 h (GT1b HCV [4]; Part C, 150 mg/day): 1.2 ± 0.3 log10 IU/mL | Mean ± SD HCV RNA maximum change from baseline (GT1b HCV [4]; Part C, 300 mg/day QD 7 days): 4.0 ± 0.4 log10 IU/mL | Individual HCV RNA maximum change from baseline (GT1b HCV [4]; Part C, 300 mg/day QD 7 days, listed as Compd 2): 3.4 log10 IU/mL and 3.7 log10 IU/mL and 3.9 log10 IU/mL and 4.2 log10 IU/mL (2×) and 4.5 log10 IU/mL | Mean ± SD HCV RNA change from baseline to 24 h (GT1b HCV [4]; Part C, 300 mg/day): 1.9 ± 0.2 log10 IU/mL | Individual HCV RNA maximum change from baseline (GT1b HCV [4]; Part C, 600 mg/day QD 7 days): 4.3 log10 IU/mL and 5.2 log10 IU/mL and 5.3 log10 IU/mL and 3.5 log10 IU/mL and 4.0 log10 IU/mL and 4.1 log10 IU/mL | Mean ± SD HCV RNA maximum change from baseline (GT1b HCV [4]; [5]): 4.4 ± 0.7 log10 IU/mL | Individual HCV RNA maximum change from baseline (GT1b HCV [4]; [5]): 3.5 log10 IU/mL and 4.0 log10 IU/mL and 4.1 log10 IU/mL and 4.3 log10 IU/mL and 5.2 log10 IU/mL and 5.3 log10 IU/mL | Mean ± SD HCV RNA change from baseline to 24 h (GT1b HCV [4]; Part C, 600 mg/day): 2.1 log10 IU/mL | Mean ± SD HCV RNA change from baseline to 24 h (GT1b HCV [4]; Part C, 600 mg/day, listed as Compd 2): 2.1 ± 0.2 log10 IU/mL | reductions in plasma HCV RNA (HCV GT1, GT2, GT3; 600 mg QD, steady state, regardless of genotype or cirrhosis status): −4.5 log10 IU/mL | plasma HCV RNA decrease within the first 24 h of dosing (HCV GT1, GT2, GT3; after the first 600 mg dose): up to 2.4 log10 IU/mL | subjects achieving HCV RNA below the lower limit of quantitation (HCV GT1, GT2, GT3; cohorts receiving 600 mg QD, seven days of therapy): ~30% | antiviral activity / HCV RNA change in cirrhotic compared with non-cirrhotic subjects (GT1, GT2, or GT3 HCV; 600 mg/day QD 7 days, Part E vs Parts C and D): similar | HCV RNA < LOQ (15 IU/mL), subjects (GT1, GT2, or GT3 HCV; [6]): 1/3 | Mean Max Reduction (GT1, GT2, or GT3 HCV; [6]): 4.2 log10 IU/mL | Mean Reduction After 24 hours (GT1, GT2, or GT3 HCV; GT1, Child-Pugh A, n=3): 2.4 log10 IU/mL | activity against HCV genotypes in cirrhotic patients (GT1, GT2, or GT3 HCV; GT1, GT2, and GT3): active | HCV RNA < LOQ (15 IU/mL), subjects (GT1, GT2, or GT3 HCV; [7]): 0/1 | Mean (Individual) Max Reduction (GT1, GT2, or GT3 HCV; [7]): 4.8 log10 IU/mL | Mean Reduction After 24 hours (GT1, GT2, or GT3 HCV; GT3, Child-Pugh A, n=1): 2.2 log10 IU/mL | Mean ± SD HCV RNA maximum change from baseline (GT1, GT2, or GT3 HCV): 4.6 log10 IU/mL and 4.5 log10 IU/mL | Mean ± SD HCV RNA maximum change from baseline (GT1, GT2, or GT3 HCV; listed as Compd 2): 4.6 ± 0.5 log10 IU/mL | Mean ± SD HCV RNA change from baseline to 24 h (GT1, GT2, or GT3 HCV): 2.4 log10 IU/mL | Mean ± SD HCV RNA change from baseline to 24 h (GT1, GT2, or GT3 HCV; listed as Compd 2): 2.4 ± 0.2 log10 IU/mL | Individual HCV RNA maximum change from baseline (GT1, GT2, or GT3 HCV; cirrhotic GT1b, 600 mg/day QD 7 days): 4.0 log10 IU/mL and 4.1 log10 IU/mL and 4.5 log10 IU/mL | Individual HCV RNA maximum change from baseline (GT1, GT2, or GT3 HCV; cirrhotic GT1b, 600 mg/day QD 7 days, listed as Compd 2): GT1b: 4.0, log10 IU/mL and 4.1 log10 IU/mL and 4.5 log10 IU/mL | Individual HCV RNA maximum change from baseline (GT1, GT2, or GT3 HCV; cirrhotic GT2, 600 mg/day QD 7 days): GT2: 4.8 log10 IU/mL | Individual HCV RNA maximum change from baseline (GT1, GT2, or GT3 HCV; cirrhotic GT3, 600 mg/day QD 7 days, listed as Compd 2): 5.1 log10 IU/mL and 5.2 log10 IU/mL
